Holding throughout (assay): spray test, herbicidal damage scoring
Holding throughout (assay type): in vivo

The test system of test [1] is transgenic tobacco plants expressing mutant HPPD SEQ ID NO: 21. Conditions: 2000 g/ha; SEQ ID 21 plants compared to plants expressing SEQ IDs 122, 124 or 125. Here is the method:
(§1) Avena sativa HPPD or orthologues and variants thereof, for example SEQ IDs 1-63 and 122-127, were expressed in transgenic tobacco. DNA sequences that encode these polypeptides (optimized for tobacco or, optionally, codon optimized according to a target crop such as soybean) were prepared synthetically. Each sequence was designed to include a 5′ fusion with TMV omega 5′ leader sequence such that they are flanked at the 5′ end with XhoI and at the 3′ end with KpnI to facilitate direct cloning into a suitable binary vector for Agrobacterium-based plant transformation. […]
(§2) Plants are assessed for damage and scored at, for example, 7 and 14 days after treatment (DAT). […]
(§3) Plants of events showing the least damage are grown to flowering, then bagged and allowed to self. […] Single copy events amongst the Ti plant lines are identified by their 3:1 segregation ratio (with respect to kanamycin and/or herbicide) and by quantitative RT-PCR. […] HPPD expression levels were monitored by Western analysis. […]

In test [2] the test system is transgenic tobacco plants expressing mutant HPPD SEQ ID NO: 8. As to conditions: 2000 g/ha; SEQ ID 8 plants compared to plants expressing SEQ IDs 122, 124 or 125. On the procedure: as §1, §2, §3
In test [3] the test system is transgenic tobacco plants expressing mutant HPPD SEQ ID 20. As to conditions: several events expressing SEQ ID 20; 800 g/ha (Table 3.3). On the procedure: as §1, §2
Plants of events showing the least damage are grown to flowering, then bagged and allowed to self. […] Single copy events amongst the Ti plant lines are identified by their 3:1 segregation ratio (with respect to kanamycin and/or herbicide) and by quantitative RT-PCR. […] HPPD expression levels were monitored by Western analysis.
The tobacco lines expressing SEQ ID 122 were now compared to a population of tobacco which express SEQ ID 20. The plants were sprayed with 800g/ha Bicyclopyrone and scored for damage.

`Cn1nnnc1NC(=O)c1ccc(C(F)(F)F)nc1-n1cncn1` [Herbicide D, N-(1-methyltetrazol-5-yl)-2-(1,2,4-triazol-1-yl)-6-(trifluoromethyl)pyridine-3-carboxamide]: the damage entry in test [1] and in test [2] was “significantly reduced damage” throughout.
For the compound bicyclopyrone, in test [3], the “tolerance in comparison to events expressing SEQ ID 122” value is on record as “increased tolerance”.
